Experimental data reported in patent US6329349A, “Methods for reducing ischemic injury of the heart via the sequential administration of monophosphoryl lipid A and adenosine receptor agents” (priority 2000, dated 2001).
“Also recorded” adds a separate entry of the source.

Assays:
[1] = tested on: Rat Brain A1 and A2 -Receptors; conditions: radioligand binding, Table I; cited from earlier work
[2] = tested on: cultured chick ventricular myocytes; assay: Simulated ischemia (hypoxia and glucose deprivation) injury in cultured ventricular myocytes, percentage of cells killed; assay type: cell-based; conditions: for number of cells killed; agent present during prolonged ischemia after MLA pretreatment vs vehicle pretreatment: MLA 300 ng/ml for 4 h, 24 h prior, agent present during 90 min simulated ischemia; for percentage of myocytes killed; preconditioning effect of the agent after MLA pretreatment vs vehicle pretreatment: MLA (30 or 300 ng/ml) 24 h prior to 5 min exposure to the agent, 10 min agent-free, then 90 min simulated ischemia
Method: Ventricular cells were cultured from chick embryos 14 days in ovo (Spafas Inc., Storrs, Conn.) as previously described (16, 23). Cells were cultivated in a humidified 5% CO2 -95% air mixture at 37 C. […] The medium was changed to a HEPES-buffered medium containing (mM) 139 NaCl, 4.7 KCl, 0.5 MgCl2, 0.9 CaCl2, 5 HEPES (N-2-hydroxyethylpiperazine-N'-2-ethanesulfonic acid) and 2% fetal bovine serum, pH 7.4, 37 C. before exposing the myocytes to the various conditions at 37 C. Control myocytes were maintained in HEPES-buffered medium under room air. Hypoxia and glucose deprivation were used to induce and simulate ischemia in the cultured cells. Hypoxia was produced by placing the cells in a hypoxic incubator (NuAire) where O2 was replaced by N2 as previously described (16,23).
The extent of hypoxia-induced injury to the ventricular cell was quantitatively determined by the percentages of cells killed. To quantitate the % of cells killed, cells were exposed to a trypsin-EDTA Hanks' balanced salt solution for 10 minutes for detachment after the various treatment, followed by centrifugation (300×g for 10 minutes) and resuspension in culture media for counting in a hemocytometer. Only live cells sedimented and the cells counted represented those that survived (46). None of the sedimented cells subsequently counted included trypan blue. […] There was no protein in the culture media following a second 300×g centrifugation of resuspended cells previously treated with trypsin-EDTA.
The percentage of cells killed was calculated as the number of cells obtained from the control group (representing cells not subjected to any hypoxia or drug treatment) minus the number of cells from the treatment group divided by number of cells in control group multiplied by 100%. […]
In this experiment, myocytes were treated with either the vehicle (0.04% propylene glycol, 0.01% ethyl alcohol) or MLA 24 hours prior to a 5 minute exposure to 10 μM adenosine. Adenosine was removed by replacement of the culture medium with adenosine-free medium, and the cells were exposed to normal room air O2 for 10 minutes, followed by 90 minutes of simulated ischemia treatment.
The experimental protocol utilized in these studies entailed pretreatment of myocytes with MLA for a 4 hour period 24 hours prior to exposure of the cardiac myocytes to 90 minutes of simulated ischemia. During this 90 minute simulated ischemia period, several cardioprotective agents were administered individually to cells and their protective effects were assessed.
Additional experiments were performed to assess the differences in cardioprotection observed when MLA was administered as the second cardioprotective agent and an adenosine agonist, KATP channel opener or protein kinase C activator was administered as the first cardioprotective agent. The experiments were performed as follows: Cardiac myocytes were exposed to the first cardioprotective agent for 5 minutes and the agent was removed. Cells were then exposed to a period of simulated ischemia in the presence or absence of 300 ng/ml of MLA. The percentage of cells killed by simulated ischemia alone was 27±2% (n=9) in the absence of any treatment with any cardioprotective agent. When MLA was present during the simulated ischemia, the percentage of cells killed was reduced from 27±2% to 14±1.2%. When cells were exposed to 5 minutes of 10 μM pinacidil, a KATP channel opener followed by exposure to simulated ischemia (in the absence of MLA), the percentage of cells killed was 12.3±1. When the pinacidil-treated cells were exposed to simulated ischemia in the presence of MLA, the percentage of cells killed was reduced from 12.3±1% to 6.3±1.2% (n=3). When cells were exposed to 5 minutes of 1 μM PMA, a PKC activator, followed by exposure to simulated ischemia (in the absence of MLA), the percentage of cells killed was 14±1. […]

A1 adenosine receptor = conditions: Table II; cited from earlier work
A2a adenosine receptor = conditions: Table II; cited from earlier work
A3 adenosine receptor = conditions: Table II; cited from earlier work
[3] = 5 min exposure to first agent (10 μM pinacidil, 1 μM PMA or 10 μM adenosine), removed, then simulated ischemia in the absence of MLA
[4] = 5 min exposure to first agent (10 μM pinacidil, 1 μM PMA or 10 μM adenosine), removed, then simulated ischemia in the presence of 300 ng/ml MLA

| Compound | A1 /A2 ratio [1] | further results |
| --- | --- | --- |
| COc1ccccc1/C=C/c1nc2c(c(=O)n(C)c(=O)n2C)n1C [17b] | 18 | – |
| COc1cccc(/C=C/c2nc3c(c(=O)n(C)c(=O)n3C)n2C)c1 [19b] | 64 | – |
| Cn1c(=O)c2c(nc(/C=C/c3cccc(C(F)(F)F)c3)n2C)n(C)c1=O [20b] | 25 | – |
| Cn1c(=O)c2c(nc(/C=C/c3cccc([N+](=O)[O-])c3)n2C)n(C)c1=O [21b] | 11 | – |
| Cn1c(=O)c2c(nc(/C=C/c3cccc(N)c3)n2C)n(C)c1=O [22b] | 30 | – |
| Cn1c(=O)c2c(nc(/C=C/c3cccc(F)c3)n2C)n(C)c1=O [27b] | 190 | – |
| COc1ccc(/C=C/c2nc3c(c(=O)n(C)c(=O)n3C)n2C)cc1 [29b] | 44 | – |
| COc1ccc(/C=C/c2nc3c(c(=O)n(C)c(=O)n3C)n2C)cc1OC [32b] | 70 | – |
| COc1cc(/C=C/c2nc3c([nH]2)c(=O)n(C)c(=O)n3C)cc(OC)c1 [33a] | 25 | – |
| COc1cc(/C=C/c2nc3c(c(=O)n(C)c(=O)n3C)n2C)cc(OC)c1 [33b] | > 200 | – |
| Cn1c(=O)c2c(nc(/C=C/c3cc(F)cc(F)c3)n2C)n(C)c1=O [34b] | 230 | – |
| COc1ccc(/C=C/c2nc3c(c(=O)n(C)c(=O)n3C)n2C)c(OC)c1OC [43b] | 34 | – |
| COc1cc(/C=C/c2nc3c(c(=O)n(C)c(=O)n3C)n2C)cc(OC)c1OC [44b] | 70 | – |
| CCCn1c(=O)c2c(nc(/C=C/c3cc(OC)cc(OC)c3)n2C)n(CCC)c1=O [53b] | 110 | – |
| OC[C@H]1O[C@@H](n2cnc3c(NC4CCCC4)nc(Cl)nc32)[C@H](O)[C@@H]1O [CCPA, 2-chloro-N^6-cyclopentyl-adenosine] | – | number of cells killed; agent present during prolonged ischemia after MLA pretreatment vs vehicle pretreatment [2]: greater reduction in the number of cells killed; percentage of myocytes killed; preconditioning effect of the agent after MLA pretreatment vs vehicle pretreatment [2]: significantly reduced the percentage of myocytes killed; also recorded: enhanced by pretreatment of myocytes with MLA |
| CCNC(=O)[C@H]1O[C@@H](n2cnc3c(NC(=O)Nc4ccccc4C(F)(F)F)ncnc32)[C@H](O)[C@@H]1O [Compound 4d, N^6-((2-trifluoromethyl)carbamoyl)adenosine-5'uronamide] | – | Ki (A1 adenosine receptor): 384 nM; Ki (A2a adenosine receptor): > 10000 nM; Ki (A3 adenosine receptor): 54 nM |
| CCNC(=O)[C@H]1O[C@@H](n2cnc3c(NC(=O)Nc4cccc(I)c4)ncnc32)[C@H](O)[C@@H]1O [Compound 4q, N^6-((3-iodophenyl)carbamoyl)adenosine-5'uronamide] | – | Ki (A2a adenosine receptor): 3940 nM; Ki (A3 adenosine receptor): 30 nM |
| CNC(=O)[C@H]1O[C@@H](n2cnc3c(NOc4ccccc4)ncnc32)[C@H](O)[C@@H]1O [Compound 11, 6-(O-Phenylhydroxylamino)purine-9-beta-ribofuranoside-5'-N-methyluronamide] | – | Ki (A1 adenosine receptor): 2060 nM; Ki (A2a adenosine receptor): 66300 nM; Ki (A3 adenosine receptor): 1340 nM |

| Compound | A1 /A2 ratio [1] | further results |
| --- | --- | --- |
| CNC(=O)[C@H]1O[C@@H](n2cnc3c(NCc4cccc(I)c4)ncnc32)[C@H](O)[C@@H]1O [IB-MECA, N^6-(3-iodobenzyl)adenosine-5'-N-methyluronamide] | – | number of cells killed; agent present during prolonged ischemia after MLA pretreatment vs vehicle pretreatment [2]: synergistic cardioprotective effect; percentage of myocytes killed; preconditioning effect of the agent after MLA pretreatment vs vehicle pretreatment [2]: significantly reduced the percentage of myocytes killed; also recorded: enhanced by pretreatment of myocytes with MLA |
| CCCCCCCCCCCCCC(=O)O[C@@H]1[C@@H](C)[C@@]2(O)[C@@H](C=C(CO)C[C@]3(O)C(=O)C(C)=C[C@@H]23)[C@@H]2C(C)(C)[C@]12OC(C)=O [PMA, Phorbol 12-myristate 13-acetate] | – | percentage of cells killed [2, 3]: 14±1%; percentage of cells killed [2, 4]: 10.5±1%; percentage of myocytes killed; preconditioning effect of the agent after MLA pretreatment vs vehicle pretreatment [2]: enhanced by pretreatment with MLA |
| Nc1ncnc2c1ncn2[C@@H]1O[C@H](CO)[C@@H](O)[C@H]1O [adenosine] | – | percentage of cells killed [2, 3]: 12±1.4%; percentage of cells killed [2, 4]: 7.4±1.2%; percentage of myocytes killed; preconditioning effect of the agent after MLA pretreatment vs vehicle pretreatment [2]: significantly decreased the percentage of myocytes killed |
| CC(=O)Nc1cccc(/C=C/c2nc3c(c(=O)n(C)c(=O)n3C)n2C)c1 [compound 23] | 240 | – |
| Cn1c(=O)c2c(nc(/C=C/c3cccc(NC(=O)CCC(=O)O)c3)n2C)n(C)c1=O [compound 24] | 250 | – |
| Cn1c(=O)c2c(nc(/C=C/c3cccc(NC(=O)OC(C)(C)C)c3)n2C)n(C)c1=O [compound 25] | 30 | – |
| Cn1c(=O)c2c(nc(/C=C/c3cccc(N(C(=O)OC(C)(C)C)C(=O)OC(C)(C)C)c3)n2C)n(C)c1=O [compound 26] | 15 | – |
| COc1cc(/C=C/c2nc3c(c(=O)n(C)c(=O)n3C)n2C)cc(OC)c1O [compound 35] | 19 | – |
| COc1cc(/C=C/c2nc3c(c(=O)n(C)c(=O)n3C)n2C)cc(OC)c1OC(C)=O [compound 36] | 93 | – |
| COc1cc(/C=C/c2nc3c(c(=O)n(C)c(=O)n3C)n2C)cc(OC)c1OCCCCN [compound 38] | 36 | – |
| COc1cc(/C=C/c2nc3c(c(=O)n(C)c(=O)n3C)n2C)cc(OC)c1OCCCCNC(=O)OC(C)(C)C [compound 39] | 42 | – |
| COc1cc(/C=C/c2nc3c(c(=O)n(C)c(=O)n3C)n2C)cc(OC)c1OC/C=C/CN [compound 40] | 28 | – |
| COc1cc(/C=C/c2nc3c(c(=O)n(C)c(=O)n3C)n2C)cc(OC)c1OC/C=C/CNC(C)=O [compound 41] | > 50 | – |
| COc1cc(/C=C/c2nc3c(c(=O)n(C)c(=O)n3C)n2C)cc(OC)c1OC/C=C/CNC(=O)OC(C)(C)C [compound 42] | > 40 | – |
| C=CCn1c(=O)c2c(nc(/C=C/c3cc(OC)c(OC)c(OC)c3)n2C)n(CC=C)c1=O [compound 46] | 13 | – |
| CC(N/C(=N\C#N)Nc1ccncc1)C(C)(C)C (stereo not drawn) [pinacidil] | – | percentage of cells killed [2, 3]: 12.3±1%; percentage of cells killed [2, 4]: 6.3±1.2%; number of cells killed; agent present during prolonged ischemia after MLA pretreatment vs vehicle pretreatment [2]: greater reduction in the number of cells killed; percentage of myocytes killed; preconditioning effect of the agent after MLA pretreatment vs vehicle pretreatment [2]: enhanced the preconditioning response mediated by pinacidil |
| Monophosphoryl lipid A [MLA] | – | percentage of cells killed ([2]; 300 ng/ml MLA present during simulated ischemia, no first agent, untreated 27±2%): 14±1.2%; percentage of cell death in response to prolonged ischemia ([2]; MLA 30 and 300 ng/ml for 4 h, 24 h prior to 90 min simulated ischemia, vs untreated, p<0.01): significantly lowered the percentage of cell death; percentage of cells killed during prolonged ischemia after preconditioning ischemia ([2]; MLA 4 h pretreatment, 24 h later 5 min preconditioning ischemia, 10 min recovery, 90 min simulated ischemia): dose-dependent reduction in the percentage of cells killed |
